From ChEMBL document CHEMBL5608141, “Identification of compartment-specific drug sensitivities in CRC organoid-stroma co-cultures” (2024)

Assays:
Assay type in all cases: functional, Homo sapiens
Parameters in all cases: dose or concentration left out as unconfirmed
[1] = system: Colon cancer organoid; assay: Identification of compartment-specific drug sensitivities in O20 CRC organoid-stroma F20 CAF co-cultures. Organoid is transduced with Lucferase2-P2A-EGFP lentivirus, fibroblast with Renilla-dsRed lentivirus. Dual-Glo Luciferase assay is used to report viability data.
[2] = system: Colon cancer organoid; assay: Identification of compartment-specific drug sensitivities in O14 CRC organoid-stroma F14 CAF co-cultures. Organoid is transduced with Lucferase2-P2A-EGFP lentivirus, fibroblast with Renilla-dsRed lentivirus. Dual-Glo Luciferase assay is used to report viability data.
[3] = system: Colon cancer organoid; assay: Identification of compartment-specific drug sensitivities in O06 CRC organoid-stroma F06 CAF co-cultures. Organoid is transduced with Lucferase2-P2A-EGFP lentivirus, fibroblast with Renilla-dsRed lentivirus. Dual-Glo Luciferase assay is used to report viability data.
[4] = Transduced with Lucferase2-P2A-EGFP lentivirus
[5] = Transduced with Renilla-dsRed lentivirus

| Structure (SMILES) | Cell Viability [1, 4] [%] | Cell Viability [1, 5] [%] | Cell Viability [2, 4] [%] | Cell Viability [2, 5] [%] | Cell Viability [3, 4] [%] | Cell Viability [3, 5] [%] |
| --- | --- | --- | --- | --- | --- | --- |
| COc1ccc(Cn2ccc3ccc(C(=O)NO)cc32)cc1 | 177.336 | 111.53 | 104.237 | 105.297 | 111.578 | 129.424 |
| Cc1cc(C)cc(C(=O)NOCCCCCC(=O)NO)c1 | 15.4081 | 402.959 | 50.2494 | 170.815 | 13.8956 | 454.718 |
| CCn1cc(-c2cccc(C(F)(F)F)c2)c2sc(C(=N)NC3CCS(=O)(=O)CC3)cc2c1=O | 61.0963 | 124.144 | 135.151 | 119.275 | 95.4713 | 165.165 |
| CCCOc1ccn2c(C(C)=O)cc(-c3cccc(OC)c3)c2c1 | 77.121 | 110.044 | 85.0656 | 86.803 | 110.241 | 146.669 |
| C[C@@H]1CC(=O)Nc2cccc(-c3ccc4c(c3)c(-c3cnn(C)c3)nn4C)c2N1 | 69.4002 | 148.573 | 127.46 | 126.975 | 96.7982 | 166.358 |
| CC(=O)c1cc(-c2cc(C(=O)NC3CC3)ccc2C)c2ncccn12 | 68.6867 | 121.421 | 131.291 | 101.161 | 95.4153 | 118.795 |
| CN1C[C@H](Nc2cnn(C)c(=O)c2Br)C[C@H](c2ccccc2)C1 | 160.124 | 106.068 | 132.078 | 105.854 | 52.3497 | 181.327 |
| CO[C@H]1CNC[C@@H](OCC2CCC(F)(F)CC2)[C@@H]1Nc1ncc(-c2cncc(C)c2)c2cc(C)c(=O)[nH]c12 | 171.771 | 122.949 | 145.9 | 102.552 | 95.0954 | 138.476 |
| Cc1sc2c(c1C)C(c1ccc(Cl)cc1)=N[C@@H](CC(=O)NCCCCCCCCNC(=O)COc1cccc3c1C(=O)N(C1CCC(=O)NC1=O)C3=O)c1nnc(C)n1-2 (some centres undefined) | 2.01 | 74.9854 | 5.905 | 10.8389 | 5.4511 | 19.3995 |
| CN(C)CCCOc1ccc(-c2cc(NCCCn3cccn3)nc(S(C)(=O)=O)n2)cc1 | 144.942 | 126.832 | 139.487 | 89.5427 | 126.468 | 129.443 |
| CNCCN1CCC(c2cc(CN(C)C(=O)c3cccc(Oc4ccccc4)c3)ccn2)CC1 | 67.5507 | 133.473 | 146.315 | 111.036 | 83.6812 | 129.007 |
| Cc1c(Nc2ccc(S(=O)(=O)N3CCN(C)CC3)cc2F)nc2ccc(Nc3cnn(C4CC4)c3)cn2c1=O | 118.006 | 135.679 | 108.37 | 91.7144 | 81.8172 | 120.859 |
| Cc1c(Nc2ccc(S(=O)(=O)N3CCN(C)CC3)cc2F)nc2ccc(-c3cnn(C4CC4)c3)cn2c1=O | 100.446 | 149.535 | 116.873 | 77.7436 | 106.525 | 138.146 |
| CCOC(=O)CCNc1cc(N2CCc3ccccc3CC2)nc(-c2cccnc2)n1 | 102.371 | 131.422 | 87.4597 | 97.4259 | 130.773 | 124.082 |
| CCCCN(Cc1ccccc1)C(=O)c1ccc(S(=O)(=O)Nc2ccccc2)cc1 | 74.981 | 116.955 | 91.6685 | 100.658 | 68.2046 | 126.816 |
| COc1cc(OC)cc(-c2noc(N3CCN(C)C4(CCN(c5ccnc(C)c5)CC4)C3)n2)c1 | 136.59 | 146.282 | 96.7615 | 90.1785 | 121.179 | 136.172 |
| CNc1cc(Oc2cc(C(=O)Nc3cc(N4CCN(C)CC4)cc(C(F)(F)F)c3)ccc2C)ncn1 | 163.613 | 75.5289 | 198.58 | 101.862 | 72.9479 | 75.3319 |
| Cc1cc(C)cc([C@@H]2c3cc(C)ccc3NC(=O)CN2C(=O)c2ccc(Br)s2)c1 | 135.909 | 541.943 | 110.484 | 405.65 | 107.168 | 464.523 |
| Cc1cc(C)cc([C@H]2c3cc(C)ccc3NC(=O)CN2C(=O)c2ccc(Br)s2)c1 | 134.675 | 98.7461 | 153.941 | 101.442 | 94.0417 | 115.465 |
| CC1=C(C)C(=O)C(C(C)(C)CC(=O)N(CCCCSC[C@H]2O[C@@H](n3cnc4c(N)ncnc43)[C@@H]3OC(C)(C)O[C@@H]32)Cc2cccc(-c3ccc(Cl)cc3)c2)=C(C)C1=O | 98.0775 | 117.278 | 94.9972 | 94.497 | 82.0361 | 129.013 |
| COCCN1CCC(c2cc(CN(C)C(=O)c3cccc(Oc4ccccc4)c3)ccn2)CC1 | 94.6976 | 115.605 | 131.353 | 104.266 | 91.2389 | 131.922 |
| Cc1cc(CN)cc(C)c1-c1ncn(C)c1-c1cncn1C | 127.793 | 117.48 | 88.8994 | 94.9152 | 121.461 | 141.638 |
| CC1=C(C)C(=O)C(C(C)(C)CC(=O)N(CCCCSC[C@H]2O[C@@H](n3cnc4c(N)ncnc43)[C@H](O)[C@@H]2O)Cc2cccc(-c3ccc(Cl)cc3)c2)=C(C)C1=O | 100.369 | 114.813 | 65.9332 | 97.7144 | 117.447 | 138.552 |
| CC(C)Oc1ccc(-c2c[nH]cc2CN(C)CCO)cc1 | 114.429 | 121.653 | 129.064 | 102.719 | 112.392 | 114.959 |
